# From publication PMC10913730, “Antimicrobial activity of a natural compound and analogs against multi-drug-resistant Gram-positive pathogens” (Microbiology Spectrum, 2024)
# Like-named read-outs stand apart in the source and are kept apart here.
# Assays:
# [1] = test system: MRSA isolates; experiment: MIC/MBC, CLSI broth microdilution, MRSA isolates; format: cell-based, Staphylococcus aureus
# [2] = pH and Ka of 10-g/L aqueous solutions (pH meter); format: physicochemical; details: 10-g/L solution in distilled, deionized water, room temperature
# [3] = test system: MRSA isolate TCH 1516; experiment: Resistance acquisition during serial passage; format: cell-based, Staphylococcus aureus
# Experimental: MRSA isolate TCH 1516 was grown to the stationary phase (OD650 = 1.0) in 10 mL of MH broth. […] The second highest drug concentration resulting in bacterial growth (OD650 >1.0) was used as the inoculum after a 1:1,000 dilution for subsequent steps, every 24 hours, for up to 21 days.
# [4] = test system: Staphylococcus epidermidis isolates; experiment: microbe, parasite or virus in culture; format: cell-based
# [5] = test system: MRSA isolate SAD05 biofilms; format: cell-based, Staphylococcus aureus; details: 72-hour biofilms of SAD05, MBEC assay
# [6] = test system: MRSA isolates SA LL 06 and TCH 1516; experiment: Kill kinetics against stationary-phase MRSA; format: cell-based, Staphylococcus aureus; details: shaking, 37°C
# Experimental: MRSA isolates, TCH 1516 and SA LL 06, were grown to the stationary phase, and the rate of bacterial killing was determined. Frozen bacterial stocks were streaked onto TSA plates and grown overnight. A single colony was selected and incubated overnight in LB broth at 37°C with constant orbital shaking at 200 RPM. Next, bacterial suspension was washed twice with 150 mM sodium chloride and resuspended in MH broth at a concentration of 1.2E9 CFU/mL. […] Glass tubes containing 5 mL of bacteria and drug solutions were grown in a shaking incubator at 37°C. At 0, 4, 8, and 24 hours, bacterial suspensions were collected, serially diluted, and plated onto a blood agar plate. Bacteria were allowed to grow for 24 hours and were enumerated to yield colony-forming units per milliliter.
# [7] = test system: MRSA isolate TCH 1516; experiment: Single-step resistance development; format: cell-based, Staphylococcus aureus
# Experimental: For the single-step study, bacteria were grown to the stationary phase as described above. Bacteria at a concentration of 1E9 CFU were then plated onto C59 and vancomycin-loaded plates containing 1×, 2×, 4×, and 8× MIC concentrations of the therapeutic agents with 1% DMSO. Bacteria were incubated at 37°C for 48 hours, and colony counts were enumerated to calculate the frequency of resistance development, as described in the literature ([45], [46]).
# [8] = Staphylococcus aureus, 39 evaluated MRSA isolates, CLSI broth microdilution, read-out: MBC90
# [9] = Staphylococcus aureus, 39 evaluated MRSA isolates, CLSI broth microdilution, read-out: MIC90
# [10] = Staphylococcus aureus, MRSA, 39 evaluated MRSA isolates, CLSI broth microdilution
# [11] = Staphylococcus aureus, MRSA, pH 5.5, MRSA 0606, pH 5.5
# [12] = Staphylococcus aureus, MRSA, pH 5.5, MRSA 0608, pH 5.5
# [13] = Staphylococcus aureus, MRSA, pH 5.5, MRSA 0634, pH 5.5
# [14] = Staphylococcus aureus, MRSA, pH 5.5, MRSA 0641, pH 5.5
# [15] = Staphylococcus aureus, MRSA, pH 5.5, MRSA 0646, pH 5.5
# [16] = Staphylococcus aureus, MRSA, pH 5.5, TCH 1516, pH 5.5
# [17] = Staphylococcus aureus, MRSA, pH 5.5, read-out: Average MBC, average of six MRSA isolates, pH 5.5
# [18] = Staphylococcus aureus, MRSA, pH 5.5, read-out: Average MIC, average of six MRSA isolates, pH 5.5
# [19] = Staphylococcus aureus, MRSA, pH 6.5, MRSA 0606, pH 6.5
# [20] = Staphylococcus aureus, MRSA, pH 6.5, MRSA 0608, pH 6.5
# [21] = Staphylococcus aureus, MRSA, pH 6.5, MRSA 0634, pH 6.5
# [22] = Staphylococcus aureus, MRSA, pH 6.5, MRSA 0641, pH 6.5
# [23] = Staphylococcus aureus, MRSA, pH 6.5, MRSA 0646, pH 6.5
# [24] = Staphylococcus aureus, MRSA, pH 6.5, TCH 1516, pH 6.5
# [25] = Staphylococcus aureus, MRSA, pH 6.5, read-out: Average MBC, average of six MRSA isolates, pH 6.5
# [26] = Staphylococcus aureus, MRSA, pH 6.5, read-out: Average MIC, average of six MRSA isolates, pH 6.5
# [27] = Staphylococcus aureus, MRSA, pH 7.4, MRSA 0606, pH 7.4
# [28] = Staphylococcus aureus, MRSA, pH 7.4, MRSA 0608, pH 7.4
# [29] = Staphylococcus aureus, MRSA, pH 7.4, MRSA 0634, pH 7.4
# [30] = Staphylococcus aureus, MRSA, pH 7.4, MRSA 0641, pH 7.4
# [31] = Staphylococcus aureus, MRSA, pH 7.4, MRSA 0646, pH 7.4
# [32] = Staphylococcus aureus, MRSA, pH 7.4, TCH 1516, pH 7.4
# [33] = Staphylococcus aureus, MRSA, pH 7.4, read-out: Average MBC, average of six MRSA isolates, pH 7.4
# [34] = Staphylococcus aureus, MRSA, pH 7.4, read-out: Average MIC, average of six MRSA isolates, pH 7.4
# [35] = Staphylococcus aureus, MRSA, read-out: MBC90, 39 evaluated MRSA isolates, CLSI broth microdilution
# [36] = 21 Staphylococcus epidermidis isolates
compound,measurement,setting,value
"CCCCCCCCCC(=O)N[C@@H](Cc1c[nH]c2ccccc12)C(=O)N[C@H](CC(N)=O)C(=O)N[C@@H](CC(=O)O)C(=O)N[C@@H]1C(=O)NCC(=O)N[C@@H](CCCN)C(=O)N[C@@H](CC(=O)O)C(=O)N[C@H](C)C(=O)N[C@@H](CC(=O)O)C(=O)NCC(=O)N[C@H](CO)C(=O)N[C@@H]([C@H](C)CC(=O)O)C(=O)N[C@@H](CC(=O)c2ccccc2N)C(=O)O[C@@H]1C [Daptomycin, daptomycin, reference compound]",MBC,[1]; [8],2 µg/mL
same,MIC90,[1]; [9],2 µg/mL
[Li+].[Li+].[O-]c1c(Cl)cc(Cl)cc1-c1cc(Cl)cc(Cl)c1[O-] [C59Li],MIC90,[1]; [10],4 µg/mL
same,MBC,[1]; [11],0.25 µg/mL
same,MIC,[1]; [11],0.25 µg/mL
same,MBC,[1]; [12],0.25 µg/mL
same,MIC,[1]; [12],0.25 µg/mL
same,MBC,[1]; [13],0.25 µg/mL
same,MIC,[1]; [13],0.25 µg/mL
same,MBC,[1]; [14],0.25 µg/mL
same,MIC,[1]; [14],0.25 µg/mL
same,MBC,[1]; [15],0.25 µg/mL
same,MIC,[1]; [15],0.25 µg/mL
same,MBC,[1]; [16],0.25 µg/mL
same,MIC,[1]; [16],0.25 µg/mL
same,MBC,[1]; [17],0.25 µg/mL
same,MIC,[1]; [18],0.25 µg/mL
same,MBC,[1]; [19],1 µg/mL
same,MIC,[1]; [19],1 µg/mL
same,MBC,[1]; [20],2 µg/mL
same,MIC,[1]; [20],1 µg/mL
same,MBC,[1]; [21],1 µg/mL
same,MIC,[1]; [21],1 µg/mL
same,MBC,[1]; [22],6 µg/mL
same,MIC,[1]; [22],0.5 µg/mL
same,MBC,[1]; [23],1 µg/mL
same,MIC,[1]; [23],0.5 µg/mL
same,MBC,[1]; [24],1 µg/mL
same,MIC,[1]; [24],1 µg/mL
same,MBC,[1]; [25],2 µg/mL
same,MIC,[1]; [26],0.83 µg/mL
same,MBC,[1]; [27],2 µg/mL
same,MIC,[1]; [27],1 µg/mL
same,MBC,[1]; [28],6 µg/mL
same,MIC,[1]; [28],2 µg/mL
same,MBC,[1]; [29],2 µg/mL
same,MIC,[1]; [29],2 µg/mL
same,MBC,[1]; [30],4 µg/mL
same,MIC,[1]; [30],2 µg/mL
same,MBC,[1]; [31],4 µg/mL
same,MIC,[1]; [31],1 µg/mL
same,MBC,[1]; [32],2 µg/mL
same,MIC,[1]; [32],2 µg/mL
same,MBC,[1]; [33],3.3 µg/mL
same,MIC,[1]; [34],1.7 µg/mL
same,MBC,[1]; [35],4 µg/mL
same,pH of solution,[2],greater than 10
"CCC[C@@H]1C[C@@H](C(=O)N[C@@H]([C@H]2O[C@H](SC)[C@H](O)[C@@H](O)[C@H]2O)[C@H](C)Cl)N(C)C1 [Clindamycin, clindamycin, reference compound]",MBC,[1]; [8],> 32 µg/mL
same,MIC90,[1]; [9],> 32 µg/mL
same,MIC,"[3]; Staphylococcus aureus, MRSA, 408 h, read-out: MIC after serial passage",32 µg/mL
same,increase in MIC,"[3]; serial passage, after 17 days",256 fold
"CC(=O)NC[C@H]1CN(c2ccc(N3CCOCC3)c(F)c2)C(=O)O1 [Linezolid, linezolid, reference compound]",MBC,[1]; [8],> 32 µg/mL
same,MIC90,[1]; [9],4 µg/mL
same,increase in MIC,"[3]; serial passage, after 21 days",16 fold
[K+].[K+].[O-]c1c(Cl)cc(Cl)cc1-c1cc(Cl)cc(Cl)c1[O-] [C59K],MIC90,[1]; [10],2 µg/mL
same,MBC,[1]; [27],6 µg/mL
same,MIC,[1]; [27],2 µg/mL
same,MBC,[1]; [28],4 µg/mL
same,MIC,[1]; [28],4 µg/mL
same,MBC,[1]; [29],6 µg/mL
same,MIC,[1]; [29],2 µg/mL
same,MBC,[1]; [30],4 µg/mL
same,MIC,[1]; [30],2 µg/mL
same,MBC,[1]; [31],4 µg/mL
same,MIC,[1]; [31],2 µg/mL
same,MBC,[1]; [32],4 µg/mL
same,MIC,[1]; [32],2 µg/mL
same,MBC,[1]; [35],4 µg/mL
same,pH of solution,[2],greater than 10
"CN[C@H](CC(C)C)C(=O)N[C@H]1C(=O)N[C@@H](CC(N)=O)C(=O)N[C@H]2C(=O)N[C@H]3C(=O)N[C@H](C(=O)N[C@H](C(=O)O)c4cc(O)cc(O)c4-c4cc3ccc4O)[C@H](O)c3ccc(c(Cl)c3)Oc3cc2cc(c3O[C@@H]2O[C@H](CO)[C@@H](O)[C@H](O)[C@H]2O[C@H]2C[C@](C)(N)[C@H](O)[C@H](C)O2)Oc2ccc(cc2Cl)[C@H]1O [Vancomycin, vancomycin, reference compound]",MBC range,[4]; [36],2 to 16 µg/mL
same,MIC range,[4]; [36],1 to 8 µg/mL
same,MIC90,[4]; Staphylococcus epidermidis,4 µg/mL
same,MBC,"[4]; Staphylococcus epidermidis, read-out: MBC90",8 µg/mL
same,MBC,"[1]; MRSA 0606, pH 7.4",2 µg/mL
same,MIC,"[1]; MRSA 0606, pH 7.4",2 µg/mL
same,MBC,"[1]; MRSA 0608, pH 7.4",6 µg/mL
same,MIC,"[1]; MRSA 0608, pH 7.4",2 µg/mL
same,MBC,"[1]; MRSA 0634, pH 7.4",6 µg/mL
same,MIC,"[1]; MRSA 0634, pH 7.4",2 µg/mL
same,MBC,"[1]; MRSA 0641, pH 7.4",4 µg/mL
same,MIC,"[1]; MRSA 0641, pH 7.4",1 µg/mL
same,MBC,"[1]; MRSA 0646, pH 7.4",6 µg/mL
same,MIC,"[1]; MRSA 0646, pH 7.4",2 µg/mL
same,MIC90,[1]; [10],2 µg/mL
same,MIC,"[1]; Staphylococcus aureus, MRSA, SA LL 06, as given for the kill kinetic assay",1 µg/mL
same,MIC,"[1]; Staphylococcus aureus, MRSA, TCH 1516, as given for the kill kinetic assay",4 µg/mL
same,MBC,[1]; [11],2 µg/mL
same,MIC,[1]; [11],2 µg/mL
same,MBC,[1]; [12],4 µg/mL
same,MIC,[1]; [12],4 µg/mL
same,MBC,[1]; [13],8 µg/mL
same,MIC,[1]; [13],2 µg/mL
same,MBC,[1]; [14],2 µg/mL
same,MIC,[1]; [14],2 µg/mL
same,MBC,[1]; [15],8 µg/mL
same,MIC,[1]; [15],2 µg/mL
same,MBC,[1]; [16],4 µg/mL
same,MIC,[1]; [16],2 µg/mL
same,MBC,[1]; [17],4.7 µg/mL
same,MIC,[1]; [18],2.3 µg/mL
same,MBC,[1]; [19],4 µg/mL
same,MIC,[1]; [19],1 µg/mL
same,MBC,[1]; [20],2 µg/mL
same,MIC,[1]; [20],2 µg/mL
same,MBC,[1]; [21],4 µg/mL
same,MIC,[1]; [21],2 µg/mL
same,MBC,[1]; [22],2 µg/mL
same,MIC,[1]; [22],1 µg/mL
same,MBC,[1]; [23],2 µg/mL
same,MIC,[1]; [23],2 µg/mL
same,MBC,[1]; [24],2 µg/mL
same,MIC,[1]; [24],1 µg/mL
same,MBC,[1]; [25],2.3 µg/mL
same,MIC,[1]; [26],1.5 µg/mL
same,MBC,[1]; [33],4.2 µg/mL
same,MIC,[1]; [34],1.7 µg/mL
same,MBC,[1]; [35],16 µg/mL
same,MBC,"[1]; TCH 1516, pH 7.4",1 µg/mL
same,MIC,"[1]; TCH 1516, pH 7.4",1 µg/mL
same,change of MIC and MBC with the reduction in pH,"[1]; six MRSA isolates, pH lowered to 5.5",increased
same,concentration that completely eradicated biofilms,[5],did not demonstrate activity against MRSA biofilms
same,bacterial killing after 24 hours,"[6]; stationary-phase SA LL 06, C59 at 1× and 2× MIC",complete lack of bacterial inhibition
same,bacterial killing after 24 hours,[6]; stationary-phase TCH 1516,significantly higher bacterial burden
same,initial increase in MIC,"[3]; serial passage, within 7 days, stable thereafter",sixfold
same,frequency of resistance acquisition,"[7]; TCH 1516, 2× MIC",1.83 × 10^−8 ± 7.10 × 10^−9
same,frequency of resistance acquisition,"[7]; TCH 1516, 4× MIC",1.56 × 10^−9 ± 7.12 × 10^−10
same,frequency of resistance acquisition,"[7]; TCH 1516, 8× MIC",5.77 × 10^−10 ± 2.77 × 10^−10
same,growth on drug-loaded plates,"[7]; TCH 1516 stationary phase, C59 as low as 2× MIC, vancomycin up to 8× MIC",bacterial growth was observed
